Reference: patent US9518052B2, “Pyrazolopyridines and pyrazolopyrimidines” (Pfizer Inc., priority 2014, dated 2016)
Counter-ions that a name gives are not always drawn. Like-named read-outs stand apart in the source and are kept apart here.

How the values were obtained:
[1] = biological target: JAK1 (Homo sapiens (Human), UniProt P23458); experiment: JAK Caliper Enzyme Assay at 1 mM ATP (JAK1); type: biochemical; details: Caliper assay at 1 mM ATP
[2] = biological target: JAK3 (Homo sapiens (Human), UniProt P52333); experiment: JAK Caliper Enzyme Assay at 1 mM ATP (JAK3); type: biochemical; details: Caliper assay at 1 mM ATP
Chain of JAK3 (P52333 whole entry, species assumed): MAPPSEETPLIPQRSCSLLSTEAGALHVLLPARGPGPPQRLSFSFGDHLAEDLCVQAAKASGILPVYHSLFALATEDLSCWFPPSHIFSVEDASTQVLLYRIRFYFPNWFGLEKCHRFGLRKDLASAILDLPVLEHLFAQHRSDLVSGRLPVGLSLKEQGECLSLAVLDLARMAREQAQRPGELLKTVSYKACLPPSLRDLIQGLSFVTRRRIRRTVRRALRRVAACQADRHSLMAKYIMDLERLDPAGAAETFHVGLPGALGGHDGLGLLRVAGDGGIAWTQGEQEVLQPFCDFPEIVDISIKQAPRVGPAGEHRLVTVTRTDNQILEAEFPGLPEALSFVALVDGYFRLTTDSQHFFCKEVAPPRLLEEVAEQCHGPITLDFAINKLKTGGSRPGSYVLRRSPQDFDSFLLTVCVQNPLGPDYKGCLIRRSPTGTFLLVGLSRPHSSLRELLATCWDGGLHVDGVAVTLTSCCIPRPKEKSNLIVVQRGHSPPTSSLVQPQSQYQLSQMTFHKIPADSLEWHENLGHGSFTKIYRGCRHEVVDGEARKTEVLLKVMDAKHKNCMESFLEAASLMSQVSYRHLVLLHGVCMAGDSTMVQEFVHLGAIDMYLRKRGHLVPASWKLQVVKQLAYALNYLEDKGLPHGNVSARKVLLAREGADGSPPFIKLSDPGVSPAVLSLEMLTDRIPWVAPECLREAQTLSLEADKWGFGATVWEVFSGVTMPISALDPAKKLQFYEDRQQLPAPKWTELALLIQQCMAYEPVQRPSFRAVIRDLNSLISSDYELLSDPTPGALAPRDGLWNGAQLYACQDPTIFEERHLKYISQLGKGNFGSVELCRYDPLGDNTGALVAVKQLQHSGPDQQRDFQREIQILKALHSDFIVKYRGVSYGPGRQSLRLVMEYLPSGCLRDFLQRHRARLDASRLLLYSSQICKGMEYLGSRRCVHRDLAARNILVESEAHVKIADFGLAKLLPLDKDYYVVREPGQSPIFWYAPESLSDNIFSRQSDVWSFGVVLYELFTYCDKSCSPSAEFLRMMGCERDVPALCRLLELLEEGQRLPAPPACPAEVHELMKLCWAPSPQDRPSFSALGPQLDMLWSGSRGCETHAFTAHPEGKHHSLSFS

[3] = biological target: TYK2 (Homo sapiens (Human), UniProt P29597); experiment: JAK Caliper Enzyme Assay at 1 mM ATP (TYK2); type: biochemical; details: Caliper assay at 1 mM ATP
Chain of TYK2 (P29597 whole entry, species assumed): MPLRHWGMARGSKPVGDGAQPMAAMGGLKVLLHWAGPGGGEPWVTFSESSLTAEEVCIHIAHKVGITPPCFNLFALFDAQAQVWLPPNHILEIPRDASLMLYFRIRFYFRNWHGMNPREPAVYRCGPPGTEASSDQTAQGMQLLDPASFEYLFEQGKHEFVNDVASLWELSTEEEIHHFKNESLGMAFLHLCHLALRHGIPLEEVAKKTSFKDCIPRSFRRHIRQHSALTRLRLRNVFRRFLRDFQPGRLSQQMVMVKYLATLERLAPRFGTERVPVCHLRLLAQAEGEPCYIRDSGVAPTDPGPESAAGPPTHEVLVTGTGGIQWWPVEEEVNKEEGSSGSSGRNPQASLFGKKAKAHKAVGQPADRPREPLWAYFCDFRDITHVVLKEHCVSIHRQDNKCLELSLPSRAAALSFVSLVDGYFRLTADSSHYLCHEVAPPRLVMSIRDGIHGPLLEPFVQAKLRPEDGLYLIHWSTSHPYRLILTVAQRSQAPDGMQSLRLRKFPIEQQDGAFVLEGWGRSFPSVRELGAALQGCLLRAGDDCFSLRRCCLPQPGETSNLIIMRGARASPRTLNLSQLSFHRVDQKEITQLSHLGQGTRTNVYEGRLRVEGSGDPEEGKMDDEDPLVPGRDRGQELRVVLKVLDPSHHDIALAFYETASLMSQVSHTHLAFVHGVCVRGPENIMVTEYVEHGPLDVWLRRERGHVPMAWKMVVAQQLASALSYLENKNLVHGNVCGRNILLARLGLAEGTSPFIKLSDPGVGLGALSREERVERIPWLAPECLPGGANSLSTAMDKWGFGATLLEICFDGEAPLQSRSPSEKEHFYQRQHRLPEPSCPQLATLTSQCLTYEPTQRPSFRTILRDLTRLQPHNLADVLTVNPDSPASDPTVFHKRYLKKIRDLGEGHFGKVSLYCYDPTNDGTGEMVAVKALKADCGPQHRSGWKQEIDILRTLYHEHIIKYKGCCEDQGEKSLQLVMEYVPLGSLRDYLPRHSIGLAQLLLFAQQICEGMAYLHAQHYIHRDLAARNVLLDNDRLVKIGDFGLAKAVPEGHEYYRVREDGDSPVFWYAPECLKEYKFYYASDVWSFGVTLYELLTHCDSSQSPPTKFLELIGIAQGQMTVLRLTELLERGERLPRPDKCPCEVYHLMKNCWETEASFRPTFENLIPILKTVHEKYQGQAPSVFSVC

[4] = system: rhIFNγ stimulated STAT-3 phosphorylation in the A549 human epithelial cell line; experiment: A549 Cell Assay: Inhibition of pSTAT3; type: cell-based; details: A549 cells
Procedure: A549 Cell Assay: Inhibition of pSTAT3
An assay measuring the efficacy of JAK inhibitors on the functional response of recombinant human interferon γ (rhIFNγ) stimulated STAT-3 phosphorylation in the A549 human epithelial cell line.
A549 cells (ATCC #CCL-185), were plated at 30,000 cells/well in 96 well flat bottomed tissue culture plates (BD#353072) in 200 μL of growth medium (DMEM, Pfizer media prep, with 10% Fetal Bovine Serum, Sigma #F4135, 2 mM L-Glutamine, Pfizer media prep, 100 U/mL penicillin, Pfizer media prep, and 200 μg/ml streptomycin, Pfizer media prep), and cultured at 37° C., 5% CO2 incubator for 18 hours. Growth medium was removed by vacuum aspiration (V&P Scientific #vp187 bp-60), and 90 μL of pre-warmed assay medium (DMEM with 0.2% BSA, Miltenyi #130-091-376) was added to each well and incubated for 15 minutes at 37° C. 10 μL of vehicle control or test compound (final concentration range of 0.3 nM to 10 μM with 0.1% DMSO) was added to the cells. Plates were incubated at 37° C. for 1 hour. After compound incubation, 10 μL of 220 ng/mL recombinant human IFNγ (R&D Systems #285-IF, final rhIFNγ concentration of 20 ng/mL) was added to the cells and plates were incubated for 30 minutes at 37° C. Wells containing A549 cells, medium with 0.1% DMSO and no rhIFNγ were used as background controls. After rhIFNγ stimulation, media was aspirated from each well and 35 μL/well of iced-cold MSD lysis buffer containing protease and phosphatase inhibitors from Phospho-STAT3 Tyr705 assay kit (Meso-Scale Discovery #K150DID) was added to each well. Plates were incubated at 4° C. with shaking for 30 minutes. Cell lysates were assayed following the MSD Phospho-STAT3 Tyr705 assay kit protocol to detect pSTAT3.
(§1) Data were collected and transformed into percent inhibition and calculated using the following formula: […]

[5] = biological target: JAK2 (Homo sapiens (Human), UniProt O60674); experiment: JAK Caliper Enzyme Assay at 1 mM ATP (JAK2); type: biochemical; details: Caliper assay at 1 mM ATP
Chain of JAK2 (O60674 whole entry, species assumed): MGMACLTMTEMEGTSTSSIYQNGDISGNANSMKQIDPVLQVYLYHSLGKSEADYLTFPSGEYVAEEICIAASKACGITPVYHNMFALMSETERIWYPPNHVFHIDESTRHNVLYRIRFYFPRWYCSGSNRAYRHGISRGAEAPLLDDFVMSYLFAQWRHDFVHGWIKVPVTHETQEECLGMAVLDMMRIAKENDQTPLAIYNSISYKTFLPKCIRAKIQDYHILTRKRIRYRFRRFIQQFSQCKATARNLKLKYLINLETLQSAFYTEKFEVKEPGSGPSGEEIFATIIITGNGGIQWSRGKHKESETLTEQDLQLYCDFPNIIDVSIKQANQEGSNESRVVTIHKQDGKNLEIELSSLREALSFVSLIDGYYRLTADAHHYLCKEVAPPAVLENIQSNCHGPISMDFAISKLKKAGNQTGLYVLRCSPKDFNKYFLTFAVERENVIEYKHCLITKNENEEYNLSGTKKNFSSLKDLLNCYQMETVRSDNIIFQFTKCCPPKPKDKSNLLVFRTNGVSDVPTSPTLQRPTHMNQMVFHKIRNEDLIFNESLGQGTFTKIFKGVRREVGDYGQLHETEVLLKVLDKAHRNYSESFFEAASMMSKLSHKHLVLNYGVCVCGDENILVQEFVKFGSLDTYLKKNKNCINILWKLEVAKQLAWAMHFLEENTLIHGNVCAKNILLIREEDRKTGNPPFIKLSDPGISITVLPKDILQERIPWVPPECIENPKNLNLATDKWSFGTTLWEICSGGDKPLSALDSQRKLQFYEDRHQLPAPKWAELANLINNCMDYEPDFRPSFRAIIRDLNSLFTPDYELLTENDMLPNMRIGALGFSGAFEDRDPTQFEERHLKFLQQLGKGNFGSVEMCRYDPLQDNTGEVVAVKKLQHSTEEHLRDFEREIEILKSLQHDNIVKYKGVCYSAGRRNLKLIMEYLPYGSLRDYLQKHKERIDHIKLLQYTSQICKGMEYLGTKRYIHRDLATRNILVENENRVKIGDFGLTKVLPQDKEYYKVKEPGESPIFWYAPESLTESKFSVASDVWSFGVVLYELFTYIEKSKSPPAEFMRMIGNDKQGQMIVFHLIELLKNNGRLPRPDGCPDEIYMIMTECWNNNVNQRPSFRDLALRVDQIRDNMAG

[6] = system: rhIL-2 stimulated STAT5 phosphorylation in isolated human T cells; experiment: Human T Cell Assay: Inhibition of pSTAT5; type: cell-based
Procedure: Human T Cell Assay: Inhibition of pSTAT5
An assay measuring the efficacy of JAK inhibitors on the functional response of recombinant human interleukin-2 (rhIL-2) stimulated STAT5 phosphorylation in isolated human T cells.
Human whole blood from individual donors was collected from the phlebotomy unit on-site. Peripheral venous blood (30-60 mL) from healthy volunteers of either sex was used as the source of T cells. T cell isolation from venous whole blood is routinely performed in a class II microbiological safety cabinet. Each sample was collected into between 3 and 6 10 mL Sodium Heparin Vacutainer tubes (BD #367874). The blood was poured into sterile 50 mL conicals (Corning #430828) and incubated with the T cell Rosette Sep Cocktail (Stemcell Technologies #15061) at 50 μL/mL antibody/blood ratio for 20 min. with shaking at room temperature. The blood/antibody mixture was then diluted 1:2 with PBS (Pfizer media prep)/2% FBS (Sigma #F4135) and 30 mL of the mixture was layered onto 15 mL Ficoll-Hypaque (GE Healthcare #17-1440-03) in 50 mL conical tubes. The tubes were then centrifuged at 1200×g for 20 min. at room temperature with no brake. Following centrifugation the T cells formed a buffy coat between the Ficoll-Hypaque and plasma layers. The plasma above the buffy coats was removed to within 5 mm of the buffy coat using a sterile Pasteur pipette. The buffy coats were then collected into fresh sterile 50 mL conical tubes containing 25 mL PBS/2% FBS (2 buffy coats per 50 mL conical). PBS/2% FBS was added to the buffy coat cells such that the final volume in the tube was 50 mL. The tubes were then centrifuged at 200×g for 15 min. at room temperature. The supernatant was discarded and the pellet re-suspended in 10-20 mL of DMEM (Pfizer media prep) Assay media/0.2% BSA (Miltenyi #130-091-376). A differential cell count was performed using a haemacytometer and cells were diluted to 1.1×10^6 T cells/ml in DMEM/0.2% BSA media. Compounds (10 mM-0.3 μM) were diluted with Hanks Balanced Salt Solution (HBSS) (Sigma #H6648) at 1:100 dilution. Immediately following cell isolation and compound dilution, 90 μl/well of T cells (˜1×10^6/ml) in assay medium (DMEM+0.2% BSA) was added to the VWR Deep well V bottom plate (#3906-520-300). 10 μl/well of compound (final concentration range of 10 μM-0.3 nM with 0.1% DMSO) or 0.1% DMSO in HBSS as controls was added to the appropriate wells. Plates were incubated for 1 hour at 37° C., 5% CO2 incubator. 10 μl of 3.3 μg/mL rhIL-2 (R&D Systems #202-IL) was added to the cells (300 ng/ml final assay concentration). Wells containing T cells, medium with 0.1% DMSO and no rhIL-2 were used as background controls. […]
as §1

Chain of JAK1 (P23458 whole entry, species assumed): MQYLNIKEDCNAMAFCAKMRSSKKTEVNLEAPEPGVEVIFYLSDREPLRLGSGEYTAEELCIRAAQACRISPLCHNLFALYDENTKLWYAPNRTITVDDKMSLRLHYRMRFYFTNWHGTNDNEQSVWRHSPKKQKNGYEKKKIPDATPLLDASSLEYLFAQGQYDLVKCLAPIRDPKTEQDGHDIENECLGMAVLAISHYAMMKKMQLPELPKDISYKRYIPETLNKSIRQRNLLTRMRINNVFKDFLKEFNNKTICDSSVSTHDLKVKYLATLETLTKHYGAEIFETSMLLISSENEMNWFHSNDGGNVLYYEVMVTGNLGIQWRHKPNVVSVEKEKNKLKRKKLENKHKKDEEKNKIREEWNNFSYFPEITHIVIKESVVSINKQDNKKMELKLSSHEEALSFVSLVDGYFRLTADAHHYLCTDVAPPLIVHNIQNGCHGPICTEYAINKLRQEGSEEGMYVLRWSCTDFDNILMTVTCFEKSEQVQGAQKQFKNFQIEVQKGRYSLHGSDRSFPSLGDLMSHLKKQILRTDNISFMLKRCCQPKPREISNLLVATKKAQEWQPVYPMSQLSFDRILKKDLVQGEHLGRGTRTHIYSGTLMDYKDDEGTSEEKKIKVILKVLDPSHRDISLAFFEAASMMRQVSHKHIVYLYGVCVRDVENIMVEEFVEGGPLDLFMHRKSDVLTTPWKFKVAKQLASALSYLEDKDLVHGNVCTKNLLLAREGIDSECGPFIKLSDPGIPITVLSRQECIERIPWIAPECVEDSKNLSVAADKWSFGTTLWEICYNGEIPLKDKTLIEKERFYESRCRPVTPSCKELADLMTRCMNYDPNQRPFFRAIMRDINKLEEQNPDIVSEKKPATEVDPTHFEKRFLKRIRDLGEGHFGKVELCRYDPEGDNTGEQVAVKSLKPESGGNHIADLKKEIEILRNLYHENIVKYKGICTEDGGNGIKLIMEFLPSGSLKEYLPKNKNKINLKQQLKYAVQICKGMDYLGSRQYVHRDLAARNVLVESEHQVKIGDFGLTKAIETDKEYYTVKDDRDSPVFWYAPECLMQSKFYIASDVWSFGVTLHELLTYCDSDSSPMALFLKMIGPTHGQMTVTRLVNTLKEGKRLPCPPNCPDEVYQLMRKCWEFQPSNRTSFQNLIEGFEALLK

Compound	IC50 [1]	IC50 ([6]; T-cell)	IC50 ([4]; Homo sapiens)	IC50 [2]	IC50 [3]	IC50 [4]	IC50 [5]	IC50 [6]
CNC(=O)c1n[nH]c2cc(-c3cc(F)c(O)cc3CC(F)(F)F)nc(NCc3ccccc3N(C)S(=O)(=O)c3cn(C)cn3)c12 [Example 59]	5.3 nM	–	–	112 nM	22.6 nM	290 nM	23.5 nM	–
CCc1cc(O)c(F)cc1-c1cc2[nH]nc(-c3nc(C)c(C)[nH]3)c2c(NCc2ccccc2N(C)S(C)(=O)=O)n1 [Example 158, N-[2-({[3-(4,5-Dimethyl-1H-imidazol-2-yl)-6-(2-ethyl-5-fluoro-4-hydroxyphenyl)-1H-pyrazolo[4,3-c]pyridin-4-yl]amino}methyl)phenyl]-N-methylmethanesulfonamide]	5.3 nM	–	31.3 nM	114 nM	33.3 nM	–	27.8 nM	–
CCc1cc(O)c(F)cc1-c1nc(NCc2ccccc2N(C)S(C)(=O)=O)c2cn[nH]c2n1 [Example 155, N-[2-({[6-(2-Ethyl-5-fluoro-4-hydroxyphenyl)-1H-pyrazolo[3,4-d]pyrimidin-4-yl]amino}methyl)phenyl]-N-methylmethanesulfonamide hydrochloride]	1.2 nM	–	30.1 nM	15.5 nM	61 nM	–	5 nM	–
CNC(=O)c1n[nH]c2cc(-c3cc(F)c(O)cc3CC(F)(F)F)nc(NCc3ccccc3N(C)S(C)(=O)=O)c12 [Example 20, 6-[5-fluoro-4-hydroxy-2-(2,2,2-trifluoroethyl)phenyl]-N-methyl-4-({2-[methyl(methylsulfon-yl)amino]benzyl}ami-no)-1H-pyrazolo[4,3-c]pyridine-3-carboxamide]	–	–	–	–	–	18.8 nM	–	31.9 nM
6-[5-fluoro-4-hydroxy-2-(2,2,2-trifluoroethyl)phenyl]-4-({5-methoxy-2-[methyl(methylsulfonyl)amino]benzyl}amino)-N-methyl-1H-pyrazolo[4,3-c]pyridine-3-carboxamide [Example 50]	–	–	–	47.4 nM	10.5 nM	321 nM	10.7 nM	–
CNC(=O)c1n[nH]c2cc(-c3cc(F)c(O)cc3CC(F)(F)F)nc(NCc3ccccc3N(C)S(=O)(=O)N(C)C)c12 [Example 57]	21.1 nM	–	–	409 nM	149 nM	60.4 nM	93.4 nM	–
CCc1cc(O)cc(C)c1-c1cc2[nH]ncc2c(NCc2ccccc2N(C)S(C)(=O)=O)n1 [Example 156, N-(2-(((6-(2-Ethyl-4-hydroxy-6-methylphenyl)-1H-pyrazolo[4,3-c]pyridin-4-yl)amino)methyl)phenyl)-N-methylmethanesulfonamide]	25.5 nM	–	72.4 nM	177 nM	10000 nM	–	–	–
CN(c1ccccc1CNc1nc(-c2cc(F)c(O)cc2CC(F)(F)F)cc2[nH]nc(C(N)=O)c12)S(=O)(=O)c1ccccc1 [Example 26, 6-[5-fluoro-4-hydroxy-2-(2,2,2-trifluoroethyl)phenyl]-4-({2-[methyl(phen-ylsulfonyl)amino]ben-zyl}amino)-1H-pyrazolo[4,3-c]pyridine-3-carboxamide]	–	–	–	–	–	124 nM	–	–
Cc1cnc(N(C)S(C)(=O)=O)c(CNc2nc(-c3cc(F)c(O)cc3CC(F)(F)F)cc3[nH]nc(C(N)=O)c23)c1 [Example 86, 6-(5-fluoro-4-hydroxy-2-(2,2,2-trifluoroethyl)phenyl)-4-(((5-methyl-2-(N-methylmethylsulfonam-ido)pyridin-3-yl)methyl)amino)-1H-pyrazolo[4,3-c]pyridine-3-carboxamide]	–	–	–	–	–	425 nM	–	–

The next lines start with results.

IC50 [1]	IC50 ([6]; T-cell)	IC50 ([4]; Homo sapiens)	Compound	IC50 [2]	IC50 [3]	IC50 [4]	IC50 [5]	IC50 [6]
10.4 nM	–	–	CNC(=O)c1n[nH]c2nc(-c3cc(F)c(O)cc3CC(F)(F)F)nc(NCc3cc(F)ccc3N(C)S(C)(=O)=O)c12 [Example 104, 4-((5-fluoro-2-(N-methylmethylsulfon-amido)benzyl)amino)-6-(5-fluoro-4-hydroxy-2-(2,2,2-trifluoroethyl)phenyl)-N-methyl-1H-pyrazolo[3,4-d]pyrimidine-3-carboxamide]	113 nM	1380 nM	292 nM	66.1 nM	–
–	3900 nM	3020 nM	Cc1nnc(-c2n[nH]c3cc(-c4cc(F)c(O)cc4CC(F)(F)F)nc(NCc4ccccc4N(C)S(C)(=O)=O)c23)[nH]1 [Example 164, N-{2-[({6-[5-Fluoro-4-hydroxy-2-(2,2,2-trifluoroethyl)phenyl]-3-(5-methyl-4H-1,2,4-triazol-3-yl)-1H-pyrazolo[4,3-c]pyridin-4-yl}amino)methyl]phenyl}-N-methylmethanesulfonamide]	–	–	–	–	–
5.4 nM	–	126 nM	CNC(=O)c1n[nH]c2nc(-c3cc(F)c(O)cc3CC(F)(F)F)nc(NCc3ccccc3N(C)S(C)(=O)=O)c12 [Example 94, 6-(5-Fluoro-4-hydroxy-2-(2,2,2-trifluoroethyl)phenyl)-N-methyl-4-((2-(N-methylmethylsulfonamido)benzyl)amino)-1H-pyrazolo[3,4-d]pyrimidine-3-carboxamide]	71.2 nM	503 nM	–	27.7 nM	–
–	1090 nM	1580 nM	CN(C)CCNC(=O)N1CCc2[nH]c(-c3n[nH]c4nc(-c5cc(F)c(O)cc5CC(F)(F)F)nc(NCc5cc(O)ccc5N(C)S(C)(=O)=O)c34)nc2C1 [Example 171, N-[2-(Dimethylamino)ethyl]-2-{6-[5-fluoro-4-hydroxy-2-(2,2,2-trifluoroethyl)phenyl]-4-({5-hydroxy-2-[methyl(methylsulfonyl)amino]benzyl}amino)-1H-pyrazolo[3,4-d]pyrimidin-3-yl}-1,4,6,7-tetrahydro-5H-imidazo[4,5-c]pyridine-5-carboxamide]	–	–	–	–	–
–	–	> 10000 nM	CN(c1ccc(O)cc1CNc1nc(-c2cc(F)c(O)cc2CC(F)(F)F)nc2[nH]nc(-c3nc4c([nH]3)CCNC4)c12)S(C)(=O)=O [Example 169, N-{2-[({6-[5-Fluoro-4-hydroxy-2-(2,2,2-trifluoroethyl)phenyl]-3-(4,5,6,7-tetrahydro-1H-imidazo[4,5-c]pyridin-2-yl)-1H-pyrazolo[3,4-d]pyrimidin-4-yl}amino)methyl]-4-hydroxyphenyl}-N-methylmethanesulfonamide]	–	–	–	–	–
